The subject of this experiment is inflammation induced by methyl nicotinate, inner part of the upper arm. Kind of experiment: Anti-inflammatory effect test (anti-inflammation assay), chromameter "a" value. Type of experiment: in vivo, human. How it is done:
The anti-inflammatory effect of the natural cell control carrier comprising 3:1 (wt/wt) water-soluble chitosan and elecampane extract according to the present invention was tested as follows. Twenty healthy male and female subjects with no experience of drug hypersensitivity or drug side effect were selected. Methyl nicotinate was used as an inflammation-inducing material. […] Firstly, the initial “a” value of the inner part of the upper arm was determined with a chromameter (Minolta, CR-300). Then, 1.0% aqueous solution of said composition and 0.1% indometacin aqueous solution were closely patched at the test part for 4 hr. After removing the patch, the test part was washed with pure water. After waiting for 1 hr for the temporary inflammation reaction to disappear, “a” value was measured again with the chromameter. After dropping 80 μL of methyl nicotinate diluted to 3 mM with pure water in a filter paper disk with 1 cm of diameter, it was applied to each test part for 1-2 min. After removing the filter paper disk, each test part was washed sufficiently with pure water. After 30 min, “a” value was measured with the chromameter. The anti-inflammatory effect of the natural cell control carrier according to the present invention, indometacin and methyl nicotinate was calculated from the “a” values.

Each structure is given as a SMILES string.

For `COc1ccc2c(c1)c(CC(=O)O)c(C)n2C(=O)c1ccc(Cl)cc1` [indometacin], where the note is “calculated from "a" values, 1.0% carrier or 0.1% indometacin aqueous solution”, the “Anti-Inflammatory Effect (%)” value is listed as 41.14%. Where the note is “chromameter, 30 min after 3 mM methyl nicotinate, 4 hr patch pre-treatment (1.0% carrier or 0.1% indometacin aqueous solution)”, the “"a" Value (n = 20)” value is 6.38.

The values are drawn from patent publication US6521268B2, “Antibacterial and anti-inflammatory compositions with Inula helenium L. extract and water soluble chitosan” (Jakwang Co., Ltd., priority 2001, dated 2003).
